Measured values taken from patent publication US11701379B2, “In vitro and in vivo intracellular delivery of siRNA via self-assembled nanopieces” (Rhode Island Hospital, priority 2018, dated 2023).

Test system: MMP-13 mRNA
Experiment: MMP-13 molecular beacon validation in chondrocytes with/without IL-1β
Type: cell-based, mouse
Conditions: realtime rtPCR
Method: Fluorescence labeled GAPDH molecular beacon and fluorescence labeled MMP-13 molecular beacon or fluorescence labeled scrambled molecular beacon delivered with Nanopieces was added into chondrocytes under standard cell culture conditions or stimulated with 10 ng/mL IL-1β (FIG. 29).
Using an established method (Tyagi et al Nat. Biotech, 1998, 16:49-53), MBs were designed to target mouse MMP-13 or GAPDH mRNA with a fluorophore/quench pair. Scramble sequence MB (Scramble) was verified to not bind with any mouse mRNA via BLAST. In vitro delivery and validation: MBs were delivered into chondrocytes by Nanopieces. Specifically, after stimulation with IL-1β for 24 hours, chondrocytes were co-transfected GAPDH and scramble MBs or GAPDH and MMP-13 MBs via Nanopieces. Real time RT-PCR and fluorescence microscopy were used to verify the stimulation of MMP-13 expression and the successful fluorescence signal resulted from MMP-13 MB.
To test the efficacy of mRNA detection in chondrocytes using MBs delivered by Nanopieces, primary mouse chondrocytes were transfected with MBs either with or without IL-1β treatment. Before IL-1β treatment, the housekeeping GAPDH MB was detected while the MMP-13 MB was not (FIG. 29, left panels). In contrast, after IL-1β treatment, both GAPDH MB and MMP-13 MB were detected, indicating the induction of MMP-13 mRNA levels by IL-1β (FIG. 29, right panels). […]

Substance: IL-1β: cytokine used to stimulate chondrocytes
- up-regulation of MMP-13 mRNA level: about 10 times
